Numbered stars: 1 amine (or outer) side, 2 acyl side, 3 side chain; on linkers, the order of the positions; unused ones are H or OH. Square brackets hold non-standard residues; d marks the D form. Peptide text beside a SMILES is read from it. * marks the point of attachment. ξ: configuration not given here. Phe(3-CONH2) = NC(=O)c1cccc(C[C@H](N)C(=O)O)c1; Phe(4-COOH) = N[C@@H](Cc1ccc(C(=O)O)cc1)C(=O)O; Phe(2-CONH2) = NC(=O)c1ccccc1C[C@H](N)C(=O)O; Oic(3aξ,7aξ) = O=C(O)[C@@H]1CC2CCCCC2N1; Phe(3-F) = N[C@@H](Cc1cccc(F)c1)C(=O)O; Phe(3-Me) = Cc1cccc(C[C@H](N)C(=O)O)c1; Pro(4,4-F2) = O=C(O)[C@@H]1CC(F)(F)CN1; Dab(3S-OH) = NC[C@H](O)[C@H](N)C(=O)O; 3Pal = N[C@@H](Cc1cccnc1)C(=O)O; X5 = O=C(C(N[*:1])c1cccs1)[*:2]; ΔZArg = N=C(N)NCC/C=C(\N)C(=O)O; AllylGly = C=CC[C@H](N)C(=O)O; NMeK = CN[C@@H](CCCCN)C(=O)O; dOrn = NCCC[C@@H](N)C(=O)O; NMeA = CN[C@@H](C)C(=O)O; Orn = NCCC[C@H](N)C(=O)O; Dab = NCC[C@H](N)C(=O)O; NH(CH2)4NH2 = NCCCCN*
Assays:
Assay in all cases: MIC, broth microdilution (CLSI), reference strain
Conditions in all cases: CAMHB
[1] = system: Pseudomonas aeruginosa ATCC 27853
[2] = system: Escherichia coli ATCC 25922
[3] = system: Staphylococcus aureus ATCC 13709
[4] = system: Acinetobacter baumannii ATCC 19606

| SMILES | Pa: MIC Pseudomonas aeruginosa ATCC 27853 [1] | Ec: MIC Escherichia coli ATCC 25922 [2] | Sa: MIC Staphylococcus aureus ATCC 13709 [3] | Ab: MIC Acinetobacter baumannii ATCC 19606 [4] |
| --- | --- | --- | --- | --- |
| C[C@H](NC(=O)[C@@H](NC(=O)[C@@H](N)CCCCN)[C@@H](O)CN)C(=O)NCC(=O)N[C@H](CCCN)C(=O)N1CCC[C@H]1C(=O)NC(C(=O)N[C@@H](CCCCN)C(=O)N/C(=C\CCNC(=N)N)C(=O)O)c1cccs1 (stereo partly drawn) [24.157] (H-K[Dab(3S-OH)]AG[dOrn]P[X5]K[ΔZArg]-OH) | − (>32 μg/mL) | − (>32 μg/mL) | + (≤32 μg/mL) | − (>32 μg/mL) |
| C[C@H](NC(=O)[C@@H](NC(=O)[C@@H](N)CCCCN)[C@@H](O)CN)C(=O)NCC(=O)N[C@H](CCCN)C(=O)N1CCC[C@H]1C(=O)N[C@@H](Cc1cccnc1)C(=O)N[C@@H](CCCCN)C(=O)N/C(=C\CCNC(=N)N)C(=O)N[C@@H](CCCCN)C(=O)NCCCCN [24.18] (H-K[Dab(3S-OH)]AG[dOrn]P[3Pal]K[ΔZArg]K-{NH(CH2)4NH2}) | − (>32 μg/mL) | ++ (≤8 μg/mL) | ++ (≤8 μg/mL) | − (>32 μg/mL) |
| C[C@H](NC(=O)[C@@H](NC(=O)[C@@H](N)CCCCN)[C@@H](O)CN)C(=O)NCC(=O)N[C@H](CCCN)C(=O)N(C)[C@@H](C)C(=O)N[C@@H](Cc1cnc[nH]1)C(=O)N[C@@H](CCCCN)C(=O)N/C(=C\CCNC(=N)N)C(N)=O [24.65] (H-K[Dab(3S-OH)]AG[dOrn][NMeA]HK[ΔZArg]-NH2) | − (>32 μg/mL) | + (≤32 μg/mL) | ++ (≤8 μg/mL) | − (>32 μg/mL) |
| Cc1cccc(C[C@H](NC(=O)[C@@H]2CCCN2C(=O)[C@@H](CCCN)NC(=O)CNC(=O)[C@@H](NC(=O)[C@@H](NC(=O)[C@@H](N)CCCCN)[C@@H](O)CN)[C@@H](O)CN)C(=O)N[C@@H](CCCCN)C(=O)N/C(=C\CCNC(=N)N)C(=O)O)c1 [22.37] (H-K[Dab(3S-OH)][Dab(3S-OH)]G[dOrn]P[Phe(3-Me)]K[ΔZArg]-OH) | − (>32 μg/mL) | + (≤32 μg/mL) | ++ (≤8 μg/mL) | − (>32 μg/mL) |
| N=C(N)NCC/C=C(\NC(=O)[C@H](CCCCN)NC(=O)[C@H](Cc1cnc[nH]1)NC(=O)[C@@H]1CCCN1C(=O)[C@@H](CCCN)NC(=O)CNC(=O)[C@H](CO)NC(=O)[C@@H](NC(=O)[C@@H](N)CCCCN)[C@@H](O)CN)C(=O)N[C@@H](CCCCN)C(=O)NCCCCN [26.1] (H-K[Dab(3S-OH)]SG[dOrn]PHK[ΔZArg]K-{NH(CH2)4NH2}) | ++ (≤8 μg/mL) | ++ (≤8 μg/mL) | ++ (≤8 μg/mL) | + (≤32 μg/mL) |
| C[C@H](NC(=O)[C@H](CCN)NC(=O)[C@@H](N)CCCCN)C(=O)NCC(=O)N[C@H](CCCN)C(=O)N1CC(F)(F)C[C@H]1C(=O)N[C@@H](Cc1cnc[nH]1)C(=O)N[C@@H](CCCCN)C(=O)N/C(=C\CCNC(=N)N)C(=O)N[C@@H](CCCCN)C(=O)NCCCCN [14.10] (H-K[Dab]AG[dOrn][Pro(4,4-F2)]HK[ΔZArg]K-{NH(CH2)4NH2}) | − (>32 μg/mL) | − (>32 μg/mL) | ++ (≤8 μg/mL) | − (>32 μg/mL) |
| C[C@H](NC(=O)[C@H](CCN)NC(=O)[C@@H](N)CCCCN)C(=O)NCC(=O)N[C@H](CCCN)C(=O)N1CCC[C@H]1C(=O)N[C@@H](Cc1cnc[nH]1)C(=O)N[C@@H](CCCCN)C(=O)N/C(=C\CCNC(=N)N)C(=O)N[C@@H](CCCCN)C(=O)NCCCCN [14.2] (H-K[Dab]AG[dOrn]PHK[ΔZArg]K-{NH(CH2)4NH2}) | − (>32 μg/mL) | + (≤32 μg/mL) | ++ (≤8 μg/mL) | − (>32 μg/mL) |
| C=CC[C@H](NC(=O)[C@@H]1CCCN1C(=O)[C@@H](CCCN)NC(=O)CNC(=O)[C@H](C)NC(=O)[C@@H](NC(=O)[C@@H](N)CCCCN)[C@@H](O)CN)C(=O)N[C@@H](CCCCN)C(=O)N/C(=C\CCNC(=N)N)C(=O)O [24.111] (H-K[Dab(3S-OH)]AG[dOrn]P[AllylGly]K[ΔZArg]-OH) | − (>32 μg/mL) | + (≤32 μg/mL) | ++ (≤8 μg/mL) | − (>32 μg/mL) |
| C[C@H](NC(=O)/C(=C/CCNC(=N)N)NC(=O)[C@H](CCCCN)NC(=O)[C@H](Cc1cnc[nH]1)NC(=O)[C@@H]1CCCN1C(=O)[C@@H](CCCN)NC(=O)CNC(=O)[C@@H](NC(=O)[C@@H](NC(=O)[C@@H](N)CCCCN)[C@@H](O)CN)[C@@H](O)CN)C(=O)NCCCCN [22.10] (H-K[Dab(3S-OH)][Dab(3S-OH)]G[dOrn]PHK[ΔZArg]A-{NH(CH2)4NH2}) | + (≤32 μg/mL) | ++ (≤8 μg/mL) | ++ (≤8 μg/mL) | − (>32 μg/mL) |
| C[C@H](NC(=O)[C@@H](NC(=O)[C@@H](N)CCCCN)[C@@H](O)CN)C(=O)NCC(=O)N[C@H](CCCN)C(=O)N1CCC[C@H]1C(=O)N[C@@H](Cc1cnc[nH]1)C(=O)N[C@@H](CCCCN)C(=O)N[C@H](CCCNC(=N)N)C(=O)O [24.122] (H-K[Dab(3S-OH)]AG[dOrn]PHK[dR]-OH) | − (>32 μg/mL) | − (>32 μg/mL) | − (>32 μg/mL) | − (>32 μg/mL) |
| CN[C@@H](CCCCN)C(=O)N[C@H](C(=O)N[C@@H](C)C(=O)NCC(=O)N[C@H](CCCN)C(=O)N1CCC[C@H]1C(=O)N[C@@H](Cc1cnc[nH]1)C(=O)N[C@@H](CCCCN)C(=O)N/C(=C\CCNC(=N)N)C(=O)N[C@@H](CCCCN)C(=O)NCCCCN)[C@@H](O)CN [24.61] (H-[NMeK][Dab(3S-OH)]AG[dOrn]PHK[ΔZArg]K-{NH(CH2)4NH2}) | + (≤32 μg/mL) | ++ (≤8 μg/mL) | ++ (≤8 μg/mL) | + (≤32 μg/mL) |
| C[C@H](NC(=O)[C@H](CCN)NC(=O)[C@@H](N)CCCCN)C(=O)NCC(=O)N[C@H](CCCN)C(=O)N1C2CCCCC2C[C@H]1C(=O)N[C@@H](Cc1cnc[nH]1)C(=O)N[C@@H](CCCCN)C(=O)N/C(=C\CCNC(=N)N)C(=O)N[C@@H](CCCCN)C(=O)NCCCCN (stereo partly drawn) [14.19] (H-K[Dab]AG[dOrn][Oic(3aξ,7aξ)]HK[ΔZArg]K-{NH(CH2)4NH2}) | − (>32 μg/mL) | − (>32 μg/mL) | ++ (≤8 μg/mL) | − (>32 μg/mL) |
| N=C(N)NCC/C=C(\NC(=O)[C@H](CCCCN)NC(=O)[C@H](Cc1cccc(F)c1)NC(=O)[C@@H]1CCCN1C(=O)[C@@H](CCCN)NC(=O)CNC(=O)[C@H](CCN)NC(=O)[C@@H](NC(=O)[C@@H](N)CCCCN)[C@@H](O)CN)C(=O)O [21.7] (H-K[Dab(3S-OH)][Dab]G[dOrn]P[Phe(3-F)]K[ΔZArg]-OH) | − (>32 μg/mL) | ++ (≤8 μg/mL) | ++ (≤8 μg/mL) | − (>32 μg/mL) |
| CC(C)C[C@H](NC(=O)[C@@H](NC(=O)[C@@H](N)CCCCN)[C@@H](O)CN)C(=O)NCC(=O)N[C@H](CCCN)C(=O)N1CCC[C@H]1C(=O)N[C@@H](Cc1cnc[nH]1)C(=O)N[C@@H](CCCCN)C(=O)N/C(=C\CCNC(=N)N)C(=O)N[C@@H](CCCCN)C(=O)NCCCCN [29.1] (H-K[Dab(3S-OH)]LG[dOrn]PHK[ΔZArg]K-{NH(CH2)4NH2}) | − (>32 μg/mL) | − (>32 μg/mL) | + (≤32 μg/mL) | − (>32 μg/mL) |
| COC(=O)/C(=C/CCNC(=N)N)NC(=O)[C@H](CCCCN)NC(=O)[C@H](Cc1cnc[nH]1)NC(=O)[C@@H]1CCCN1C(=O)[C@@H](CCCN)NC(=O)CNC(=O)[C@H](C)NC(=O)[C@@H](NC(=O)[C@@H](N)CCCCN)[C@@H](O)CN [24.160] (H-K[Dab(3S-OH)]AG[dOrn]PHK[ΔZArg]-OMe) | − (>32 μg/mL) | ++ (≤8 μg/mL) | ++ (≤8 μg/mL) | − (>32 μg/mL) |
| C[C@H](NC(=O)[C@@H](NC(=O)[C@@H](N)CCCCN)[C@@H](O)CN)C(=O)NCC(=O)N[C@H](CCCN)C(=O)N1CCC[C@H]1C(=O)N[C@@H](Cc1ccccc1C(N)=O)C(=O)N[C@@H](CCCCN)C(=O)N/C(=C\CCNC(=N)N)C(=O)O [24.82] (H-K[Dab(3S-OH)]AG[dOrn]P[Phe(2-CONH2)]K[ΔZArg]-OH) | − (>32 μg/mL) | − (>32 μg/mL) | + (≤32 μg/mL) | − (>32 μg/mL) |
| N=C(N)NCC/C=C(\NC(=O)[C@H](CCCCN)NC(=O)[C@H](Cc1cccc(C(N)=O)c1)NC(=O)[C@@H]1CCCN1C(=O)[C@@H](CCCN)NC(=O)CNC(=O)[C@H](CCCN)NC(=O)[C@@H](NC(=O)[C@@H](N)CCCCN)[C@@H](O)CN)C(=O)O [211.3] (H-K[Dab(3S-OH)][Orn]G[dOrn]P[Phe(3-CONH2)]K[ΔZArg]-OH) | − (>32 μg/mL) | ++ (≤8 μg/mL) | ++ (≤8 μg/mL) | − (>32 μg/mL) |
| C[C@H](NC(=O)[C@@H](NC(=O)[C@@H](N)CCCCN)[C@@H](O)CN)C(=O)NCC(=O)N[C@H](CCCN)C(=O)N1CCC[C@H]1C(=O)N[C@@H](Cc1ccc(C(=O)O)cc1)C(=O)N[C@@H](CCCCN)C(=O)N/C(=C\CCNC(=N)N)C(=O)O [24.161] (H-K[Dab(3S-OH)]AG[dOrn]P[Phe(4-COOH)]K[ΔZArg]-OH) | − (>32 μg/mL) | ++ (≤8 μg/mL) | ++ (≤8 μg/mL) | − (>32 μg/mL) |
